The values below come from article PMC3258152 (Nucleic Acids Research, 2011).

The experiment deals with T1, CkoPE (Candidatus Korarchaeum cryptofilum, UniProt B1L4V6).
T1 sequence (B1L4V6 1-117): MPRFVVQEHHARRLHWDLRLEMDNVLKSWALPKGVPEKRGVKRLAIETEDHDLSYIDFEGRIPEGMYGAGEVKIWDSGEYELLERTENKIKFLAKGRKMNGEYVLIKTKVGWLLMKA
Description: […]'-resection of […]-labelled D22R2 single strand, urea-PAGE. Format: biochemical.

`O=P(O)(O)O` [phosphate] had an IC50 of approximately 50 mM.
